# Tests used:
# [1] = bexarotene-treated patients, two SPIRIT trials; cited from earlier work
# [2] = tested on: non small cell lung cancer; settings: addition of bexarotene to chemotherapy, first-line, advanced non small cell lung cancer, both phase III trials; cited from earlier work
# [3] = tested on: LCP1; test: RNA microarray of LCP1 expression in paclitaxel-resistant MDA-MB-231 (MDA-PR) cells; type: cell-based, human; settings: for effect on LCP1 expression (in words): paclitaxel alone, or bexarotene together with paclitaxel
# Method: (§1) The human breast cancer cell line MDA-MB-231 was obtained from the American Type Culture Collection (Manassas, Va., USA), and MDA-MB-231 cells were routinely cultured in RPMI-1640 supplemented with 10% fetal bovine serum and 2 mM glutamine in 5% CO2. Bexarotene was synthesized at Ligand Pharmaceuticals Inc. (San Diego, Calif., USA), and paclitaxel was purchased from Sigma Chemicals (St. Louis, Mo., USA). The protocol for establishment of paclitaxel-resistant MDA-MB-231 cells and resensitization to paclitaxel by bexarotene treatment was described previously (5). Briefly, MDA-MB-231 cells were exposed to regimens on a 10-day cycle: a 3-day treatment with 30 nM paclitaxel followed by a 7-day exposure to control medium. […] These MDA-PR cells were then treated with the combination of 30 nM paclitaxel (3 days on and 7 days off) in the absence or presence of 1 μM Targretin (10 days on) in a new 10-day cycle for 3 months.
# [4] = tested on: non small cell lung cancer; test: Kaplan-Meier survival analysis of bexarotene-treated patients in the SPIRIT I and II phase III trials; type: in vivo, human (patients); settings: bexarotene plus chemotherapy, control arm 284 days
# Method: Bexarotene (also called Targretin, LGD1069) is a selective modulator of retinoid X receptors (RXRs) approved for treating refractory advanced-stage cutaneous T-cell lymphoma (1, 2). […] Consequently, two large phase III trials (SPIRIT I and SPIRIT II) were conducted to evaluate the efficacy and safety of standard chemotherapy agents with or without bexarotene as a first-line therapy in treating advanced non small cell lung cancer. […] A known side-effect of retinoid therapy is the elevation of serum lipids, and the majority of the bexarotene treated patients in the two SPIRIT trials developed hypertriglyceridemia, as expected. […] This intriguing correlation between survival and triglyceride level induced by bexarotene observed in both SPIRIT trials is illustrated in FIG. 1A. […] These findings prompted the search for biomarkers which can predict bexarotene sensitivity and identify a subgroup of non small cell lung cancer patients whose survival could be prolonged by bexarotene treatment.
# FIG. 1. Sub-population analysis and study design. […] Kaplan-Meier survival estimates in patients gave median survivals of 170 days, 263 days, and 371 days for these three groups, respectively. […] B. Overview of genome-wide association study design. In Stage I discovery phase, 150 samples (74 cases and 76 controls) were genotyped using the Affymetrix GeneChip 500K Mapping Array Set (Nsp array+Sty array) containing 500,000 SNPs following the Affymetrix standard protocol. 255 SNPs were then selected for stage II study. In Stage II, 400 samples were individually genotyped using the 255 Sequenom iPLEX SNP assays, including 147 samples (minus one case and two controls) used in the Stage I for the Verification group and 253 new samples for the Replication group. In the Replication group, 129 samples were included from the patients with middle level of triglyceride percentile (HTG Mid).
# [5] = tested on: MDA-PR cells; test: Growth and resensitization of paclitaxel-resistant MDA-MB-231 cells; type: cell-based, human; settings: 30 nM paclitaxel (3 days on, 7 days off) in absence or presence of 1 μM Targretin (10 days on), 3 months
# Method: as §1
SMILES,patients who developed NCI grade 3 or higher hypertriglyceridemia [1],overall survival in the intent-to-treat population [2],"LCP1 expression up-regulation compared to MDA-PR cells ([3]; 30 nM paclitaxel/1 μM bexarotene for 3 months, p-value=6.86×10^−6)",effect on LCP1 expression (in words) [3],median survival (Kaplan-Meier estimate) ([4]; 'HTG Hi' group: 67% to maximum triglyceride),median survival (Kaplan-Meier estimate) ([4]; 'HTG Lo' group: triglyceride up to 33% of maximum level),median survival (Kaplan-Meier estimate) ([4]; 'HTG Mid' group: middle third (33% to 67%)),effect on growth / paclitaxel sensitivity of MDA-PR cells [5]
C=C(c1ccc(C(=O)O)cc1)c1cc2c(cc1C)C(C)(C)CCC2(C)C [bexarotene],30-40%,did not improve overall survival,3.8 fold,significantly up-regulated,371 days,170 days,263 days,re-sensitized to paclitaxel
CC(=O)O[C@H]1C(=O)[C@@]2(C)[C@H]([C@H](OC(=O)c3ccccc3)[C@]3(O)C[C@H](OC(=O)[C@H](O)[C@@H](NC(=O)c4ccccc4)c4ccccc4)C(C)=C1C3(C)C)[C@]1(OC(C)=O)CO[C@@H]1C[C@@H]2O [paclitaxel],,,,no effect,,,,no effect

# From US10202652B2, “Methods and compositions of predicting activity of retinoid X receptor modulator” (Denovo Biopharma (Hangzhou) Ltd. Co., priority 2011, dated 2019)
